Reference: US20070128136A1, “Terrein compound having melanin biosynthesis inhibitors and its preparation” (priority 2003, published 2007)

Key:
Assay type in all cases: cell-based
[1] = system: Mel-Ab melanin cells; experiment: Melanin biosynthesis inhibiting effect in Mel-Ab melanin cells; details: for melanin biosynthesis inhibition: terrein 0-100 uM, kojic acid 0-100 uM, FIG. 5 and FIG. 6
Protocol: Particularly, Mel-Ab melanin cells were cultured in DMEM medium supplemented with 10% fetal bovine serum (FBS), 100 nM phobol 12-myristate 13-acetate, 1 nM cholera toxin, 50 ug/ml of streptomycin and 50 U/ml of penicillin under the condition of 5% CO2, 37° C. Mel-Ab melanin cells cultured in the above experimental example 1 were treated respectively with terrein compound and kojic acid, a conventional whitening agent, at different concentrations (0, 10, 25, 50, 75 and 100 uM of terrein compound and 0, 1, 10 and 100 uM of kojic acid). Both Mel-Ab melanin cells cultured under general culture conditions and Mel-Ab melanin cells treated with terrein compound of the present invention were observed under a microscope for comparison, and the result was shown in FIG. 7.

[2] = system: Mel-Ab melanin cells; experiment: Cytotoxicity test, crystal violet staining of Mel-Ab cells; details: 24 hours, under the concentration of 100 uM, FIG. 4
Protocol: In order to investigate cytotoxicity of terrein compound of the present invention, Mel-Ab cells were treated with the terrein compound.
Particularly, Mel-Ab melanin cells were cultured in DMEM medium supplemented with 10% fetal bovine serum (FBS), 100 nM phobol 12-myristate 13-acetate, 1 nM cholera toxin, 50 ug/ml of streptomycin and 50 U/ml of penicillin under the condition of 5% CO2, 37° C.
Mel-Ab melanin cells cultured above were treated with terrein compound at different concentrations (0, 10, 25, 50, 75, 100 uM) for 24 hours, followed by further culture. Then, medium was removed. Cells were stained with 0.5 ml of 0.1% crystal violet and Mel-Ab melanin cells were checked. Crystal violet was removed by washing several times. Crystal violet remaining in cells was extracted by using 1.0 ml of 95% ethanol. OD590 of the extracted crystal violet was measured by ELISA reader in order to investigate vitality of cells.

[3] = system: MITF (microphthalmia-associated transcription factor); experiment: MITF decomposition in Mel-Ab melanin cells by Western blot; details: 100 uM, with ERK activation
Protocol: (§1) In order to investigate melanin biosynthesis inhibiting mechanism of terrein compound of the present invention, Mel-Ab melanin cells cultured above were treated with 100 uM of terrein compound. And at each time point of 0, 2, 10, 30, 60, 180, and 360 minute, ERK (extracellular signal-regulated kinase) activation and MITF (microphthalmia-associated transcription factor) decomposition were investigated by Western blot.

[4] = system: ERK (extracellular signal-regulated kinase); experiment: ERK activation in Mel-Ab melanin cells by Western blot; details: 100 uM
Protocol: as §1

Row | Structure (SMILES) | melanin biosynthesis inhibition [1] | cytotoxicity (vitality of cells, OD590 of crystal violet) [2] | expression of MITF [3] | melanin biosynthesis inhibiting effect relative to kojic acid ([1]; both at 10 uM) [times] | dark melanin of cells observed under a microscope ([1]; dose-dependently, FIG. 7) | duration of ERK activation [4] [h] | time from treatment to ERK1 and ERK2 activation [4] [min] | ERK1 and ERK2 activation ([4]; FIG. 8)
1 | O=c1cc(CO)occ1O [kojic acid, reference compound] | inhibited melanin biosynthesis dose-dependently | – | – | – | – | – | – | –
2 | C/C=C/C1=CC(=O)C(O)C1O (stereo not drawn) [terrein compound, 4,5-dihydroxy-3-propenyl-2-cyclopenten-1-one] | inhibited melanin biosynthesis dose-dependently | no cytotoxicity | decreased | 10 | clearly decreased | ≥ 6 | 2 to 10 | activated fast
